Measurements: patent publication US8853213B2, “Bicyclic compound for modulating G protein-coupled receptors” (Hanmi Pharm. Co., Ltd, priority 2011, dated 2014)

Biological target: T1, GPR119 (Homo sapiens, UniProt Q8TDV5)
T1 construct: host or cells: CHO-K1 (CRE-bla reporter, doxycycline-induced)
T1 sequence (Q8TDV5 1-335): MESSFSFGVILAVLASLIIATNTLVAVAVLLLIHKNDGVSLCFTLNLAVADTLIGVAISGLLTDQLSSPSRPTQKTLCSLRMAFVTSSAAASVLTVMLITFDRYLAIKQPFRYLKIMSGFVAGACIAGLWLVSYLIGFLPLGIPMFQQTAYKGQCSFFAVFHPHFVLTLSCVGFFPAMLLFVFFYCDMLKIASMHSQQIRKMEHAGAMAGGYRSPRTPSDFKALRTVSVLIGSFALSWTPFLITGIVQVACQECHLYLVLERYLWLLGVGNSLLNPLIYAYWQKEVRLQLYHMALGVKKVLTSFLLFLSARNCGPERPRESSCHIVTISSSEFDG
Assay: Controlling Effect of GPR119 in CRE-bla CHO-K1 Cells (EC50)
Type: cell-based
Settings: GPR119 CRE-bla CHO-K1 cell line, 5 hr incubation with compound, β-lactamase LiveBLAzer-FRET B/G readout; read-out: controlling effect against GPR119 in CRE-bla CHO-K1 cell line (EC50)
How it was run: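 CHO-K1 cells carrying GPR119 and a CRE-β-lactamase reporter, induced with doxycycline for 16-20 h at 37° C, then exposed to compounds in 10-fold dilutions for 5 h. CCF4-AM FRET substrate added for 2 h at room temperature; blue/green fluorescence (409 ex, […]) read and EC50 derived.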

| SMILES | EC50 [nM] |
| --- | --- |
| CS(=O)(=O)c1ccc(-c2csc3c(OC4CCN(c5nc(CC6CC6)no5)CC4)ncnc23)c(F)c1 [Example 69, 7-(2-fluoro-4-methanesulfonyl-phenyl)-4-[1-(3-cyclopropylmethyl-[1,2,4]oxadiazol-5-yl)piperidin-4-yloxy]thieno[3,2-d]pyrimidine] | < 100 |
| CS(=O)(=O)c1ccc(-c2csc3c(OC4CCN(c5nc(C6CCCC6)no5)CC4)ncnc23)c(F)c1 [Example 70, 7-(2-fluoro-4-methanesulfonyl-phenyl)-4-[1-(3-cyclopentyl-[1,2,4]oxadiazol-5-yl)piperidin-4-yloxy]thieno[3,2-d]pyrimidine] | < 100 |
| CC(C)(C)c1noc(N2CCC(Oc3ncnc4c(-c5ccc(S(C)(=O)=O)cc5F)csc34)CC2)n1 [Example 71, 7-(2-fluoro-4-methanesulfonyl-phenyl)-4-[1-(3-t-butyl-[1,2,4]oxadiazol-5-yl)piperidin-4-yloxy]thieno[3,2-d]pyrimidine] | < 100 |
| CS(=O)(=O)c1ccc(-c2csc3c(OC4CCN(c5nc6ccccc6o5)CC4)ncnc23)c(F)c1 [Example 77, 2-(4-(7-(2-fluoro-4-methanesulfonyl-phenyl)thieno[3,2-d]pyrimidin-4-yloxy)piperidin-1-yl)benzo[d]oxazole] | < 100 |
| CC(C)Cc1noc(N2CCC(Oc3ncnc4c(-c5ccc(S(C)(=O)=O)cc5F)csc34)CC2)n1 [Example 78, 7-(2-fluoro-4-methanesulfonyl-phenyl)-4-[1-(3-isobutyl-[1,2,4]oxadiazol-5-yl)piperidin-4-yloxy]thieno[3,2-d]pyrimidine] | < 100 |
| CS(=O)(=O)c1ccc(-c2csc3c(OC4CCN(c5nc(C6CCCCC6)no5)CC4)ncnc23)c(F)c1 [Example 79, 7-(2-fluoro-4-methanesulfonyl-phenyl)-4-[1-(3-cyclohexyl-[1,2,4]oxadiazol-5-yl)piperidin-4-yloxy]thieno[3,2-d]pyrimidine] | < 100 |
| CS(=O)(=O)c1ccc(-c2csc3c(OC4CCN(c5nc(C6CC7CCC6C7)no5)CC4)ncnc23)c(F)c1 (stereo not shown) [Example 80, 7-(2-fluoro-4-methanesulfonyl-phenyl)-4-[1-(3-bicyclo[2,2,1]heptan-2-yl[1,2,4]oxadiazol-5-yl)piperidin-4-yloxy]thieno[3,2-d]pyrimidine] | < 100 |
| CCc1cnc(N2CCC(Oc3ncnc4c(-c5ccc(S(C)(=O)=O)cc5F)csc34)CC2)nc1 [Example 81, 4-[1-(5-ethylpyrimidin-2-yl)-piperidin-4-yloxy]-7-(2-fluoro-4-methanesulfonyl-phenyl)-thieno[3,2-d]pyrimidine] | < 100 |
| CCCc1cnc(N2CCC(Oc3ncnc4c(-c5ccc(S(C)(=O)=O)cc5F)csc34)CC2)nc1 [Example 83, 7-(2-fluoro-4-methanesulfonyl-phenyl)-4-[1-(5-propyl-pyrimidin-2-yl)-piperidin-4-yloxy]-thieno[3,2-d]pyrimidine] | < 100 |
| CS(=O)(=O)c1ccc(-c2csc3c(OC4CCN(c5ncc(C6CC6)cn5)CC4)ncnc23)c(F)c1 [Example 84, 7-(2-fluoro-4-methanesulfonyl-phenyl)-4-[1-(5-cyclopropyl-pyrimidin-2-yl)-piperidin-4-yloxy]-thieno[3,2-d]pyrimidine] | < 100 |
| CC(C)c1ccc(-c2cnc(N3CCC(Oc4ncnc5c(-c6ccc(S(C)(=O)=O)cc6F)csc45)CC3)nc2)cc1 [Example 86, 7-(2-fluoro-4-methanesulfonyl-phenyl)-4-{1-[5-(4-isopropylphenyl)-pyrimidin-2-yl)-piperidin-4-yloxy]-thieno[3,2-d]pyrimidine] | < 100 |
| CS(=O)(=O)c1ccc(-c2csc3c(OC4CCN(C(=O)c5ccccc5)CC4)ncnc23)c(F)c1 [Example 89, {4-[7-(2-fluoro-4-methanesulfonyl-phenyl)-thieno[3,2-d]pyrimidin-4-yloxy]-piperidin-1-yl}phenyl-methanone] | < 100 |
| CS(=O)(=O)c1ccc(-c2csc3c(OC4CCN(C(=O)c5cccnc5)CC4)ncnc23)c(F)c1 [Example 90] | > 1000 |
| CS(=O)(=O)c1ccc(-c2csc3c(OC4CCN(Cc5ccccc5)CC4)ncnc23)c(F)c1 [Example 91, 4-(1-benzylpiperidin-4-yloxy]-7-(2-fluoro-4-methanesulfonyl-phenyl)thieno[3,2-d]pyrimidine] | < 100 |
| CC(C)c1csc(N2CCC(Oc3ncnc4c(-c5ccc(S(C)(=O)=O)cc5F)csc34)CC2)n1 [Example 93, 7-(2-fluoro-4-methanesulfonyl-phenyl)-4-[1-(4-isopropyl-thiazo-2-yl)piperidin-4-yloxy]-thieno[3,2-d]pyrimidine] | > 1000 |
| CC(C)n1nnc(N2CCC(Oc3ncnc4c(-c5ccc(S(C)(=O)=O)cc5F)csc34)CC2)n1 [Example 94, 7-(2-fluoro-4-methanesulfonyl-phenyl)-4-(1-(2-isopropyl-2H-tetrazol-5-yl)piperidin-4-yloxy)thieno[3,2-d]pyrimidine] | < 100 |
| CC(C)c1nc(N2CCC(Oc3ncnc4c(-c5ccc(S(C)(=O)=O)cc5F)csc34)CC2)no1 [Example 95, 7-(2-fluoro-4-methanesulfonyl-phenyl)-4[1-(5-isopropyl-[1,2,4]oxadiazol-3-yl)-piperidin-4-yloxy]-thieno[3,2d]pyrimidine] | < 100 |

Results, then the compound that gave them:

| EC50 [nM] | SMILES |
| --- | --- |
| < 100 | CC(C)(C)OC(=O)N1CCC(Oc2ncnc3c(-c4ccc(S(C)(=O)=O)cc4F)csc23)CC1 [Example 72, tert-butyl 4-(7-(2-fluoro-4-methanesulfonyl-phenyl)thieno[3,2-d]pyrimidin-4-yloxy)piperidin-1-carboxylate] |
| < 100 | CC(C)OC(=O)N1CCC(Oc2ncnc3c(-c4ccc(S(C)(=O)=O)cc4F)csc23)CC1 [Example 73, isopropyl 4-(7-(2-fluoro-4-methanesulfonyl-phenyl)thieno[3,2-d]pyrimidin-4-yloxy)piperidin-1-carboxylate] |
| > 1000 | CN1CCC(Oc2ncnc3c(-c4ccc(S(C)(=O)=O)cc4F)csc23)CC1 [Example 74, 7-(2-fluoro-4-methanesulfonyl-phenyl)-4-[1-methylpiperidin-4-yloxy]thieno[3,2-d]pyrimidine] |
| 100 to 1000 | CS(=O)(=O)c1ccc(-c2csc3c(OC4CCN(C#N)CC4)ncnc23)c(F)c1 [Example 75, 4-(7-(2-fluoro-4-methanesulfonyl-phenyl)thieno[3,2-d]pyrimidin-4-yloxy)piperidin-1-carbonitrile] |
| > 1000 | CS(=O)(=O)c1ccc(-c2csc3c(OC4CCNCC4)ncnc23)c(F)c1 [Example 76, 7-(2-fluoro-4-methanesulfonyl-phenyl)-4-[piperidin-4-yloxy]thieno[3,2-d]pyrimidine] |
| < 100 | CS(=O)(=O)c1ccc(-c2csc3c(OC4CCN(c5ncccn5)CC4)ncnc23)c(F)c1 [Example 85, 7-(2-fluoro-4-methanesulfonyl-phenyl)-4-(1-pyrimidin-2-yl-piperidin-4-yloxy)-thieno[3,2-d]pyrimidine] |
| > 1000 | CC(=O)N1CCC(Oc2ncnc3c(-c4ccc(S(C)(=O)=O)cc4F)csc23)CC1 [Example 87, 1-(4-(7-(2-fluoro-4-methanesulfonyl-phenyl)thieno[3,2-d]pyrimidin-4-yloxy)piperidin-1-yl)ethanone] |
| < 100 | CC(C)(C)C(=O)N1CCC(Oc2ncnc3c(-c4ccc(S(C)(=O)=O)cc4F)csc23)CC1 [Example 88, 1-(4-(7-(2-fluoro-4-methanesulfonyl-phenyl)thieno[3,2-d]pyrimidin-4-yloxy)piperidin-1-yl)-2,2-dimethylpropan-1-one] |
